The source of these data is patent US7709504B2, “Use of Substituted 2-thio-3,5-dicyano-4-phenyl-6-aminopyridines in the treatment of nausea and vomiting” (Bayer Schering Pharma Aktiengesellschaft, priority 2004, dated 2010).

Structures are written as SMILES.

This assay deals with ferrets. The assay can be described thus: Emetine-induced retching tests on ferrets. Type of assay: in vivo. Particulars: for antiemetic effect: test substance 0.3 and 3.0 mg/kg p.o. 60 min before emetine. Here is the method: Emetine-Induced Retching Tests on Ferrets:
The determination of the antiemetic action follows the method described by Gardner et al. in Brit. J. Pharmacol., 116, 3158-3163, 1995.
Sixty minutes before administration of the test substance, the ferrets were accommodated in individual stainless steel cages (40×50×34 cm) having a grid floor. The animals were then treated with emetine (2 mg/kg p.o.) and observed immediately for a period of 2 hours with a view to the following points: • number of ferrets which show signs of retching and vomiting; • latency up to initial retching (hours, minutes, seconds); • latency up to initial vomiting (hours, minutes, seconds); • retching (how often); • vomiting (how often); • number of nauseas; • average duration of the vomiting periods (minutes, seconds); • serious side effects on behavior.
Retching is defined according to the invention as a rhythmical respiratory movement against closed vocal cords, while vomiting is defined according to the invention as a forced expulsion of the higher stomach and intestinal contents.
32 ferrets were investigated. The substance tested was administered in two doses, orally sixty minutes before emetine administration, and compared to a control group. Ondansetrone (16 mg/kg p.o.) was given under the same experimental conditions and served as a reference substance.
The 32 ferrets were employed repeatedly in order to investigate 4 test substances. The administration scheme for the three-week experiment looked as follows:
The amounts were analyzed and the student's test was used in the comparison of the treated groups with the control group.
The […] data were analyzed, Fisher's exact probability test being used for the comparison of the treated groups with the control group.

[1] abbreviates: ferrets given emetine 2 mg/kg p.o., vs control group.
The mark [2] stands for this setting: 16 mg/kg p.o., ferrets, emetine 2 mg/kg p.o., 2 h observation.

For `N#Cc1c(NCCO)nc(SCc2ccccc2)c(C#N)c1-c1ccccc1` [Substance 1], the antiemetic effect result under setting [1] is on record as “no significant antiemetic effect”.
On the same count and under the same terms, the result for `COCCOc1ccc(-c2c(C#N)c(N)nc(SCc3cccnc3)c2C#N)cc1` [Substance 2] reads “no significant antiemetic effect”.
As for `CC(=O)Nc1ccc(-c2c(C#N)c(N)nc(SCc3ccccn3)c2C#N)cc1` [Substance 3], the “prevention of emetine-induced vomiting” value (ferrets given emetine 2 mg/kg p.o., test substance in two doses orally 60 min before emetine, vs control group) is “significantly prevented”.
In the case of `Cc1nccn1CC1CCc2c(c3ccccc3n2C)C1=O` (centres unmarked) [ondansetrone, Ondansetrone, reference compound], under setting [2], the “number of ferrets in which emesis was induced” value is recorded as “one of 16”; the “quantitative occurrence of retching and vomiting (induced by emetine)” value was “significantly reduced”.
